# Results reported in patent publication US7893299B2, “Interleukin-1 and tumor necrosis factor-αmodulators; syntheses of such modulators and methods of using such modulators” (Nereus Pharmaceuticals, Inc., priority 2005, dated 2011).
# Like-named read-outs stand apart in the source and are kept apart here.
# What was measured:
# HPBMC = HPBMC cell viability, Resazurin; format: cell-based, Human; details: HPBMC, 24 hr drug exposure, read-out: EC50 Inhibition of cell growth
# Experimental: (§1) Eighty μl of 3.1×10^5/ml Human Peripheral Blood Mononuclear cells (HPBMC) were seeded in Costar 3904 96-well plate in LGM-3 medium and cultured for 12 hr at 37° C., 5% CO2 and 95% humidified air. 10 μl of 8-point half-log serial dilutions of LT-1-85, CC-3-19, CC-3-13P, formula (IIB-A1) and CC-3-22 prepared in LGM-3 medium was added to the cells and incubated for 1 hr. Subsequently, 10 μl of 500 ng/ml lipopolysaccharide (LPS) diluted in LGM-3 medium from 1 mg/ml stock solution was added to the cells and incubation proceeded for another 4 hr at 37° C., 5% CO2 and 95% humidified air. SB203580, a known p38 MAP kinase inhibitor and DMSO were used as positive and negative controls, respectively. After 4 hr stimulation with LPS, the level of TNF-α from each sample was analyzed by using the human TNF-α cytoset ELISA kit. EC50 values (the drug concentration at which 50% of the maximal observed TNF-α production is inhibited) were determined using a standard sigmoidal dose response curve fitting algorithm (Prism 2.0, GraphPad Software Inc). A duplicate set of cell plates were assayed for cell viability using the Resazurin dye after the cells were incubated with test compounds for 24 hr. The fluorescence of the reduction product of Resazurin was measured using a Fusion microplate fluorometer (Packard Bioscience) with λex=535 nm and λem=590 nm filters. EC50 values (the drug concentration at which 50% of the maximal observed growth inhibition is established) were determined using a standard sigmoidal dose response curve fitting algorithm (Prism 2.0, GraphPad Software Inc).
# [1] = system: TNF-α production in THP-1 cells; experiment: LPS-induced TNF-α production in differentiated THP-1 cells (FLISA); format: cell-based; details: Homo sapiens, read-out: Percent TNF-α Inhibition
# Experimental: (§2) The ability to inhibit TNF-α production was analyzed in THP-1 cells, a human acute monocytic leukemia cell line that is widely used to assess monocyte functions. In order to induce maturation, THP-1 cells were plated at 1×10^6 cells/ml and pretreated with 5 nM PMA for two days. Differentiated THP-1 cells were pretreated with various concentrations of TTL3 or its analogs for 1 hour, followed by a 4 hour incubation with 1 μg of LPS (Sigma, St. Louse, Mo.). The p38 inhibitor (SB 203580; Sigma, St. Louis, Mo.) was used as a positive control. Supernatants were collected and stored at −80° C. until assayed for TNF-α activity. A resazurin assay was performed for each analog to evaluate the effects on cell metabolism and viability.
# To detect the presence of human TNFα, fluorescent linked immunosorbent assay or FLISA was developed and optimized. 100 μl of beads (6 μm, Spherotech) coated with goat anti-mouse IgG (1 mg/ml, R and D Systems) were mixed with 4 μl of biotin-anti-hTNFα mouse IgG (0.1 mg/ml, R and D Systems) and 2 μl of FMAT Blue-streptavidin (0.1 mg/ml, Applied Biosystems). 50 μl of the mixtures was combined with 50 μl of the supernatant isolated from treated THP-1 cells and added to the black wall FLISA plates (Applied Biosystems) and incubated overnight. The plates were scanned at factory set PMT setting, and the values were plotted and analyzed by Applied Biosystems software.
# [2] = system: TNF-α production in HPBMC; experiment: TNF-α levels in LPS-stimulated Human Peripheral Blood Mononuclear cells (ELISA); format: cell-based; details: 5 hr drug exposure, read-out: EC50 Inhibition of TNF-α production
# Experimental: as §1
# THP-1 cells = experiment: resazurin viability assay in THP-1 cells; format: cell-based, human; details: * mild, ** marked reduction in viability, in % (unit assumed)
# Experimental: as §2
# A preparation of the dye resazurin, commercially-available as alamarBlue™ (Biosource International Inc., 820 Flynn Road, Camarillo, Calif.), was used for the cytotoxicity assays described herein. The assays and experiments described herein were conducted in substantially the same manner as described in the scientific literature, for example, in Magnani, E. and Bettini, E., “Resazurin detection of energy metabolism changes in serum-starved PC12 cells and of neuroprotective agent effect,” Brain Res Protoc., 2000 July; 5(3):266-72 and in Nociari M. M., Shalev A., Benias P., and Russo C. J, “A novel one-step, highly sensitive fluorometric assay to evaluate cell-mediated cytotoxicity,” Immunol. Methods 213, 157-167 (1998), see also U.S. Pat. No. 5,501,959, entitled “Antibiotic and Cytotoxic Drug Susceptibility Assays using Resazurin and Poising Agents,” the entire specification of which is incorporated herein by reference.
# RPMI 8226 cells = experiment: cell growth inhibition, RPMI 8226, Resazurin, 1% FBS; format: cell-based, Human; details: 48 hr of drug exposure
# Experimental: (§3) Human prostate adenocarcinoma (PC-3; CRL-1435), multiple myeloma (RPMI 8226; CCL-155) and embryonic kidney (HEK-293; CRL-1573) cells were all purchased from ATCC and maintained in appropriate culture media. The cells were cultured in an incubator at 37° C. in 5% CO2 and 95% humidified air.
# (§4) For cell growth inhibition assays, PC-3 and HEK-293 cells were seeded at 5×10^3 and 1.5×10^3 cells/well respectively in 90 μl media containing 1% (v/v) FBS into 96 well (Corning; 3904) black-walled, clear-bottom tissue culture plates and the plates were incubated overnight to allow cells to establish and enter log phase growth. RPMI 8226 cells were seeded at 2×10^4 cells/well respectively in 90 μl media containing 1% (v/v) FBS into 96 well plates on the day of the assay. 4 mg/ml stock solutions of the compounds were prepared in 100% DMSO and stored at −20° C. The compounds were serially diluted and added in triplicate to the test wells. LT-1-85 was tested at concentrations ranging from 27 μM to 8.6 nM. Concentrations ranging from 30 μM to 9.7 nM were tested for CC-3-13P. Formula (IIB-A1) was tested at concentrations ranging from 26 μM to 8.4 nM. The plates were returned to the incubator for 48 hours. The final concentration of DMSO was 0.25% in all samples.
# (§5) Following 48 hours of drug exposure, 10 μl of 0.2 mg/ml Resazurin in Mg2+, Ca2+ free phosphate buffered saline was added to each well and the plates were returned to the incubator for 3-6 hours. Since living cells metabolize Resazurin, the fluorescence of the reduction product of Resazurin was measured using a Fusion microplate fluorometer (Packard Bioscience) with λex=535 nm and λem=590 nm filters. Resazurin dye in medium without cells was used to determine the background, which was subtracted from the data for all experimental wells. […] Where the maximum inhibition of cell growth was less than 50%, an EC50 value was not determined. The data in Table 25 summarize the growth inhibitory effects of LT-1-85, CC-3-13P and formula (IIB-A1) against HEK-293, PC-3 and RPMI 8226 cells. The EC50 values indicate that LT-1-85 and CC-3-13P are cytotoxic against HEK-293, PC-3 and RPMI 8226 cells. Formula (IIB-A1) is cytotoxic against RPMI 8226 cells.
# PC-3 cells = experiment: cell growth inhibition, PC-3, Resazurin, 1% FBS; format: cell-based, Human; details: 48 hr of drug exposure
# Experimental: as §3, §4, §5
# HT-29 (Colon) = experiment: 48 hr cytotoxicity, HT-29; format: cell-based, human; details: Homo sapiens, HT-29, 48 h
# Experimental: (§6) Human colon adenocarcinoma HT-29 (ATCC# HTB-38), prostate adenocarcinoma PC-3 (ATCC# CRL-1435), breast adenocarcinoma MDA-MB231 (ATCC# HTB-26), Multiple Myeloma RPMI 8226 (ATCC# CCL-155) and U266 (ATCC # TIB-196) cell lines and human normal fibroblast CCD-27sk (ATCC# CRL-1475) were all purchased from ATCC (Manassas, Va.). The cells were maintained in their respective ATCC recommended culture media at 37° C., 5% CO2 and 95% humidified air.
# (§7) The cytotoxicity assays were performed by seeding individual cell lines at appropriate density in the 96 well flat-bottomed plates and allowed to attach for 24 hours at 37° C., 5% CO2 and 95% humidified air (RPMI 8226 and U266 cells were plated in 96 well plates on the day of compound addition). Serially diluted NPI-1387 was added in triplicate to cells at concentrations ranging from 160 nM to 20 μM. Final concentration of 0.25% (v/v) DMSO was used as the vehicle control. Cell viability was assessed 48 hours later by measuring the fluorescence of the reduction product of Resazurin by a Fusion microplate fluorometer (PerkinElmer) with λex=535 nm and λem=590 nm filters. The IC50 values (the drug concentration at which 50% of the maximal observed cytotoxicity is established) were calculated in XLFit 3.0 or XLFit 4.0 (ID Business Solutions Ltd) using a sigmoidal dose response model.
# U266 (MM) = experiment: 48 hr cytotoxicity, U266; format: cell-based, human; details: Homo sapiens, U-266, 48 h
# Experimental: (§8) B16-F10 (ATCC; CRL-6475), DU 145 (ATCC; HTB-81), HEK293 (ATCC; CRL-1573), HT-29 (ATCC; HTB-38), LoVo (ATCC; CCL-229), MDA-MB-231 (ATCC; HTB-26), MIA PaCa-2 (ATCC; CRL-1420), NCI-H292 (ATCC; CRL-1848), OVCAR-3 (ATCC, HTB-161), PANC-1 (ATCC; CRL-1469), PC-3 (ATCC; CRL-1435), RPMI 8226 (ATCC; CCL-155) and U266 (ATCC; TIB-196) are maintained in appropriate culture media. The cells are cultured in an incubator at 37° C. in 5% CO2 and 95% humidified air.
# (§9) For cell growth inhibition assays, B16-F10, DU 145, HEK293, HT-29, LoVo, MDA-MB-231, MIA PaCa-2, NCI-H292, OVCAR-3, PANC-1, PC-3, RPMI 8226 and U266 cells are seeded at 1.25×10^3, 5×10^3, 1.5×10^4, 5×10^3, 5×10^3, 1×10^4, 2×10^3, 4×10^3, 1×10^4, 7.5×10^3, 5×10^3, 2×10^4, 2.5×10^4 cells/well respectively in 90 μl complete media into Corning 3904 black-walled, clear-bottom tissue culture plates. 20 mM stock solutions of compounds of Formula II, IIA, and IIB are prepared in 100% DMSO, aliquoted and stored at −80° C. Compounds of Formula II, IIA, and IIB are serially diluted and added in triplicate to the test wells resulting in final concentrations ranging from of 20 μM to 0.2 pM. […]
# (§10) Following 48 hours of drug exposure, 10 μl of 0.2 mg/ml resazurin (obtained from Sigma-Aldrich Chemical Co.) in Mg^2+, Ca^2+ free phosphate buffered saline is added to each well and the plates are returned to the incubator for 3-6 hours. Since living cells metabolize Resazurin, the fluorescence of the reduction product of Resazurin is measured using a Fusion microplate fluorometer (Packard Bioscience) with λex=535 nm and λem=590 nm filters. […]
# (§11) The cytotoxicity assays were performed by seeding individual cell lines at appropriate density in the 96 well flat-bottomed plates and allowed to attach for 24 hours at 37° C., 5% CO2 and 95% humidified air (RPMI 8226 and U266 cells were plated in 96 well plates on the day of compound addition). […] Cell viability was assessed 48 hours later by measuring the fluorescence of the reduction product of Resazurin by a Fusion microplate fluorometer (PerkinElmer) with λex=535 nm and λem=590 nm filters. […]
# MDA-MB-231 (Breast) = experiment: 48 hr cytotoxicity, MDA-MB-231; format: cell-based, human; details: Homo sapiens, MDA-MB-231, 48 h
# Experimental: as §8, §9, §10, §11
# RPMI 8226 (MM) = experiment: 48 hr cytotoxicity, RPMI 8226; format: cell-based, human; details: Homo sapiens, RPMI-8226, 48 h
# Experimental: as §6, §7
# PC3 (Prostate) = experiment: 48 hr cytotoxicity, PC-3; format: cell-based, human; details: Homo sapiens, 48 h
# Experimental: as §8, §9, §10, §11
structure (smiles),measurement,setting,value
C=C[C@@]1(C)CCC=C2[C@H]1CC[C@@H]1[C@](C)(COC(=O)CN3CCOCC3)CCC[C@@]21C [CC-3-22],EC50,"HPBMC; Homo sapiens, 24 h",24 µM
same,inhibition at 0.1 µg/mL,[1]; 100 ng/ml,0%
same,inhibition at 1 µg/mL,[1]; 1 ug/ml,0%
same,inhibition at 10 µg/mL,[1]; 10 ug/ml,20%
same,EC50,"[2]; Homo sapiens, PBMC, 5 h",7.4 µM
same,Effect on Cell Viability,THP-1 cells; 100 ng/ml,100
same,Effect on Cell Viability,THP-1 cells; 1 ug/ml,100
same,Effect on Cell Viability,THP-1 cells; 10 ug/ml,100
C=C[C@@]1(C)CCC=C2[C@H]1CC[C@@H]1[C@](C)(CNCCN)CCC[C@@]21C [CC-3-13P],EC50,HPBMC,0.7 µM
same,EC50,"HPBMC; Homo sapiens, 24 h",0.9 µM
same,EC50,RPMI 8226 cells,2.7 µM
same,EC50,"RPMI 8226 cells; Homo sapiens, RPMI-8226, 48 h",2.3 µM
same,EC50,PC-3 cells,4 µM
same,EC50,"PC-3 cells; Homo sapiens, PC-3, 48 h",3.7 µM
same,EC50,[2],0.4 µM
same,EC50,"[2]; Homo sapiens, PBMC, 5 h",0.5 µM
C=C[C@@]1(C)CCC=C2[C@H]1CC[C@@H]1[C@](C)(CC(=O)CN3CCNCC3)CCC[C@@]21C [CC-3-19],EC50,"HPBMC; Homo sapiens, 24 h",3 µM
same,EC50,"[2]; Homo sapiens, PBMC, 5 h",3.3 µM
C=C[C@@]1(C)CCC=C2[C@H]1CC[C@@H]1[C@](C)(C(=O)O)CCC[C@@]21C [TTL1],Effect on Cell Viability,THP-1 cells; 100 ng/ml,100
same,Effect on Cell Viability,THP-1 cells; 1 ug/ml,100
C=CC(=O)[C@]1(C)CCC[C@@]2(C)C3CCC4C[C@@]3(CCC21)CC4=C (stereo partly shown) [NPI-1388],IC50,HT-29 (Colon),17 ± 4 µM
same,IC50,U266 (MM),8.6 ± 6.4 µM
same,IC50,MDA-MB-231 (Breast),14 ± 5 µM
same,IC50,RPMI 8226 (MM),4.1 ± 1.1 µM
same,IC50,PC3 (Prostate),10 ± 3 µM
